Results: PubChem BioAssay AID330 (DTP/NCI, 2004)
Values joined by “and” are separate entries in the source; they are usually repeats but may differ in a detail not shown here. Equal values may be shown once. Inconclusive results and toxic doses are left out.

System: P388 leukemia ip, CD2F1 mice, survival T/C
Experiment: NCI In Vivo Anticancer Drug Screen. Data for tumor model P388 Leukemia (intraperitoneal) in CD2F1 (CDF1) mice
Conditions: endpoint: median survival time, higher = longer survival
Method in brief: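 Mice carrying the transplanted tumor received test compound or vehicle. Survival was recorded in each group, and the value is the treated-group measurement divided by that of the vehicle-treated control group.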

[1] = dose: 50.0 mg/kg/injection, schedule: Q01DX009 (ip), vehicle: Klucel (hydroxypropylcellulose) (HPC)
[2] = dose: 200.0 mg/kg/injection, schedule: Q01DX009 (ip), vehicle: Klucel (hydroxypropylcellulose) (HPC)
[3] = dose: 100.0 mg/kg/injection, schedule: Q01DX001 (ip), vehicle: Klucel (hydroxypropylcellulose) (HPC)
[4] = dose: 200.0 mg/kg/injection, schedule: Q01DX001 (ip), vehicle: Klucel (hydroxypropylcellulose) (HPC)
[5] = dose: 400.0 mg/kg/injection, schedule: Q01DX001 (ip), vehicle: Klucel (hydroxypropylcellulose) (HPC)
[6] = dose: 60.0 mg/kg/injection, schedule: Q01DX005 (ip), vehicle: saline
[7] = dose: 120.0 mg/kg/injection, schedule: Q01DX005 (ip), vehicle: saline
[8] = dose: 240.0 mg/kg/injection, schedule: Q01DX005 (ip), vehicle: saline
[9] = dose: 50.0 mg/kg/injection, schedule: Q01DX009 (ip), vehicle: saline with Tween-80
[10] = dose: 100.0 mg/kg/injection, schedule: Q01DX009 (ip), vehicle: saline with Tween-80
[11] = dose: 200.0 mg/kg/injection, schedule: Q01DX009 (ip), vehicle: saline with Tween-80
[12] = dose: 50.0 mg/kg/injection, schedule: Q01DX005 (ip), vehicle: saline with Tween-80
[13] = dose: 100.0 mg/kg/injection, schedule: Q01DX005 (ip), vehicle: saline with Tween-80
[14] = dose: 60.0 mg/kg/injection, schedule: Q01DX005 (ip), vehicle: Klucel (hydroxypropylcellulose) (HPC)
[15] = dose: 120.0 mg/kg/injection, schedule: Q01DX005 (ip), vehicle: Klucel (hydroxypropylcellulose) (HPC)
[16] = dose: 240.0 mg/kg/injection, schedule: Q01DX005 (ip), vehicle: Klucel (hydroxypropylcellulose) (HPC)
[17] = dose: 60.0 mg/kg/injection, schedule: Q01DX005 (ip), vehicle: saline with Tween-80
[18] = dose: 120.0 mg/kg/injection, schedule: Q01DX005 (ip), vehicle: saline with Tween-80
[19] = dose: 240.0 mg/kg/injection, schedule: Q01DX005 (ip), vehicle: saline with Tween-80
[20] = dose: 12.5 mg/kg/injection, schedule: Q01DX005 (ip), vehicle: saline with Tween-80
[21] = dose: 25.0 mg/kg/injection, schedule: Q01DX005 (ip), vehicle: saline with Tween-80
[22] = dose: 100.0 mg/kg/injection, schedule: Q04DX002 (ip), vehicle: saline with Tween-80
[23] = dose: 200.0 mg/kg/injection, schedule: Q04DX002 (ip), vehicle: saline with Tween-80
[24] = dose: 100.0 mg/kg/injection, schedule: Q04DX003 (ip), vehicle: saline

Compound: C=C[C@]1(C)C[C@@H](OC(=O)CO)[C@@]2(C)[C@H](C)CC[C@]3(CCC(=O)[C@H]32)[C@@H](C)[C@@H]1O
- T/C (dose: 12.5 mg/kg/injection, schedule: Q01DX009 (ip), vehicle: Klucel (hydroxypropylcellulose) (HPC)): 101 % of control
- T/C (dose: 25.0 mg/kg/injection, schedule: Q01DX009 (ip), vehicle: Klucel (hydroxypropylcellulose) (HPC)): 97 % of control
- T/C [1]: 101 % of control and 108 % of control and 94 % of control
- T/C (dose: 150.0 mg/kg/injection, schedule: Q01DX009 (ip), vehicle: Klucel (hydroxypropylcellulose) (HPC)): 100 % of control and 95 % of control
- T/C [2]: 104 % of control and 107 % of control
- T/C (dose: 400.0 mg/kg/injection, schedule: Q01DX009 (ip), vehicle: Klucel (hydroxypropylcellulose) (HPC)): 107 % of control

Compound: C=C(C)n1c(=O)[nH]c2ccccc21
- T/C (dose: 50.0 mg/kg/injection, schedule: Q01DX009 (ip), vehicle: saline): 87 % of control
- T/C (dose: 100.0 mg/kg/injection, schedule: Q01DX009 (ip), vehicle: saline): 87 % of control
- T/C (dose: 200.0 mg/kg/injection, schedule: Q01DX009 (ip), vehicle: saline): 89 % of control

Compound: COc1cc2c(cc1OC)C(Cc1cc(Br)sc1Br)N(C(C)=O)CC2 (configuration not stated)
- T/C [3]: 101 % of control
- T/C [4]: 101 % of control
- T/C [5]: 113 % of control

Compound: C=CCOC(=O)OCCO
- T/C [6]: 101 % of control
- T/C [7]: 108 % of control
- T/C [8]: 99 % of control

Compound: O=C1OC(CO)CC1(O)CO (configuration not stated)
- T/C [6]: 99 % of control
- T/C [7]: 105 % of control
- T/C [8]: 104 % of control

Compound: CC(=O)Nc1nc(C)c([N+](=O)[O-])s1
- T/C [9]: 105 % of control
- T/C [10]: 93 % of control
- T/C [11]: 100 % of control

Compound: CC1=NN(c2ccc(Cl)cc2)C(=O)/C1=C\c1c(C)[nH]n(-c2ccc(Cl)cc2)c1=O
- T/C [12]: 110 % of control
- T/C [13]: 101 % of control
- T/C (dose: 200.0 mg/kg/injection, schedule: Q01DX005 (ip), vehicle: saline with Tween-80): 96 % of control

Compound: CCCCCCCCCCCCCCCC(=O)NC(CCCCN)C(=O)NC(CCCCN)C(=O)OCC (configuration not stated)
- T/C (dose: 12.5 mg/kg/injection, schedule: Q01DX009 (ip), vehicle: saline with Tween-80): 101 % of control
- T/C (dose: 25.0 mg/kg/injection, schedule: Q01DX009 (ip), vehicle: saline with Tween-80): 106 % of control

Compound: COc1cccc(-c2c(C#N)c(=O)n(C)c3nncn23)c1
- T/C (dose: 100.0 mg/kg/injection, schedule: Q01DX001 (ip), vehicle: saline with Tween-80): 97 % of control
- T/C (dose: 200.0 mg/kg/injection, schedule: Q01DX001 (ip), vehicle: saline with Tween-80): 94 % of control
- T/C (dose: 400.0 mg/kg/injection, schedule: Q01DX001 (ip), vehicle: saline with Tween-80): 91 % of control

Compound: CC(=O)Nc1cc(N)c2c(c1)CCCC2=O
- T/C [14]: 97 % of control
- T/C [15]: 96 % of control
- T/C [16]: 90 % of control

Compound: NC(=O)c1nn(C2OC(CO)C(O)C2O)c2ncnc(N)c12 (configuration not stated)
- T/C (dose: 3.0 mg/kg/injection, schedule: Q01DX009 (ip), vehicle: Klucel (hydroxypropylcellulose) (HPC)): 152 % of control
- T/C (dose: 6.0 mg/kg/injection, schedule: Q01DX009 (ip), vehicle: Klucel (hydroxypropylcellulose) (HPC)): 190 % of control

Compound: COP(=O)(CC(=O)CCCCCO)OC
- T/C [6]: 114 % of control
- T/C [7]: 107 % of control
- T/C [8]: 107 % of control

Compound: CC(C)=CCC/C(C)=C/CC/C(C)=C/CS(=O)(=O)c1ccc(C)cc1
- T/C [9]: 105 % of control
- T/C [10]: 105 % of control
- T/C [11]: 109 % of control

Compound: CSc1nc(N)c(-c2ccc([N+](=O)[O-])cc2)s1
- T/C [17]: 97 % of control
- T/C [18]: 97 % of control
- T/C [19]: 97 % of control

Compound: O=C1c2ccccc2-c2nnsc21
- T/C [14]: 98 % of control
- T/C [15]: 107 % of control
- T/C [16]: 100 % of control

Compound: COc1ccc(N2C(N)=NC(N)=NC2(C)C)cc1
- T/C (dose: 6.25 mg/kg/injection, schedule: Q01DX005 (ip), vehicle: saline with Tween-80): 93 % of control
- T/C [20]: 102 % of control
- T/C [21]: 107 % of control

Compound: O=C1OCCc2c1[nH]c1ccccc21
- T/C [22]: 100 % of control
- T/C [23]: 100 % of control

Compound: CCOC(=O)C1C(=O)N2C(=O)C(NC(C)=O)=C(O)C2C1c1ccc(C)cc1 (configuration not stated)
- T/C [22]: 100 % of control
- T/C [23]: 100 % of control
- T/C (dose: 400.0 mg/kg/injection, schedule: Q04DX002 (ip), vehicle: saline with Tween-80): 104 % of control

Compound: CC(C(=O)N1CCCC1)C(O)c1ccccc1 (configuration not stated)
- T/C (dose: 50.0 mg/kg/injection, schedule: Q01DX005 (ip), vehicle: saline): 105 % of control
- T/C (dose: 100.0 mg/kg/injection, schedule: Q01DX005 (ip), vehicle: saline): 107 % of control
- T/C (dose: 200.0 mg/kg/injection, schedule: Q01DX005 (ip), vehicle: saline): 98 % of control

Compound: Cc1cccc2c(OCC3CO3)cc(=O)[nH]c12 (configuration not stated)
- T/C [21]: 110 % of control
- T/C [12]: 114 % of control and 118 % of control

Compound: CC[N+](C)(CC)CC(C)C1NS(=O)(=O)c2ccccc21 (configuration not stated)
- T/C (dose: 25.0 mg/kg/injection, schedule: Q04DX003 (ip), vehicle: saline): 104 % of control
- T/C (dose: 50.0 mg/kg/injection, schedule: Q04DX003 (ip), vehicle: saline): 98 % of control
- T/C [24]: 98 % of control and 100 % of control

Compound: N#C/C(=N\NC(=O)c1ccccc1)c1ccccc1
- T/C [20]: 100 % of control
- T/C [21]: 95 % of control
- T/C [12]: 103 % of control and 95 % of control

Compound: CC1(C)CC(=O)C(C)(CCC#N)C(=O)C1
- T/C [24]: 102 % of control
- T/C (dose: 200.0 mg/kg/injection, schedule: Q04DX003 (ip), vehicle: saline): 99 % of control
- T/C (dose: 400.0 mg/kg/injection, schedule: Q04DX003 (ip), vehicle: saline): 99 % of control

Compound: O=S(=O)(F)c1ncc2[nH]cnc2n1
- T/C [20]: 109 % of control
- T/C [21]: 114 % of control
- T/C [12]: 106 % of control and 111 % of control
- T/C [13]: 108 % of control

Compound: Cc1ccc(S(=O)(=O)NNC(=O)c2ccccc2Nc2cccc(Br)c2)cc1
- T/C [3]: 97 % of control
- T/C [4]: 97 % of control
- T/C [5]: 98 % of control

Compound: CSc1nnc2nc3c4ccccc4c4ccccc4c3nn12
- T/C (dose: 50.0 mg/kg/injection, schedule: Q04DX002 (ip), vehicle: suspension in saline): 100 % of control
- T/C (dose: 100.0 mg/kg/injection, schedule: Q04DX002 (ip), vehicle: suspension in saline): 100 % of control
- T/C (dose: 200.0 mg/kg/injection, schedule: Q04DX002 (ip), vehicle: suspension in saline): 98 % of control

Compound: O=C1C(C2(O)C(=O)Nc3ccccc32)CCCC1C1(O)C(=O)Nc2ccccc21 (configuration not stated)
- T/C [14]: 90 % of control
- T/C [15]: 87 % of control
- T/C [16]: 89 % of control

Compound: COc1ccc(C(c2c(O)c3ccccc3oc2=O)N2CCOCC2)c(OC)c1 (configuration not stated)
- T/C [17]: 99 % of control
- T/C [18]: 107 % of control

Compound: Nc1ccccc1C(=O)CC1OC(=O)c2ccccc21 (configuration not stated)
- T/C [17]: 105 % of control
- T/C [18]: 105 % of control
- T/C [19]: 97 % of control

Compound: COc1ccc(OC)c(C(N)=O)c1
- T/C [1]: 102 % of control
- T/C (dose: 100.0 mg/kg/injection, schedule: Q01DX009 (ip), vehicle: Klucel (hydroxypropylcellulose) (HPC)): 102 % of control
- T/C [2]: 100 % of control

Compound: CCCCCCOCN(COCCCCCC)c1ccc(Cl)cc1
- T/C [9]: 102 % of control
- T/C [10]: 109 % of control
- T/C [11]: 118 % of control

Compound: COc1nc(OC)c2cnn(-c3ccc(Cl)cc3)c2n1
- T/C (dose: 30.0 mg/kg/injection, schedule: Q01DX005 (ip), vehicle: Klucel (hydroxypropylcellulose) (HPC)): 89 % of control
- T/C [14]: 89 % of control
- T/C [15]: 92 % of control
- T/C [16]: 89 % of control

Compound: O=Nc1cc(S(=O)(=O)O)c2ccccc2c1O
- T/C [9]: 100 % of control
- T/C [10]: 90 % of control
- T/C [11]: 90 % of control

Compound: COC1(OC)OC(c2ccccc2)=C(C#N)C(c2ccc(Cl)cc2)C1(OC)OC (configuration not stated)
- T/C [14]: 96 % of control
- T/C [15]: 94 % of control
- T/C [16]: 88 % of control
